Results taken from ChEMBL document CHEMBL1136414, “Structure-activity relationship of linear peptide Bu-His-DPhe-Arg-Trp-Gly-NH(2) at the human melanocortin-1 and -4 receptors: histidine substitution” (Bioorg Med Chem Lett, 2003).
pEC50, pIC50: −log10 of the molar value.

What was measured:
[1] = target: T1, Melanocyte-stimulating hormone receptor (Homo sapiens, UniProt Q01726); test: Binding affinity towards human melanocortin receptor hMC1R by using radioligand NDP-MSH
Target sequence in this assay (Q01726 whole entry): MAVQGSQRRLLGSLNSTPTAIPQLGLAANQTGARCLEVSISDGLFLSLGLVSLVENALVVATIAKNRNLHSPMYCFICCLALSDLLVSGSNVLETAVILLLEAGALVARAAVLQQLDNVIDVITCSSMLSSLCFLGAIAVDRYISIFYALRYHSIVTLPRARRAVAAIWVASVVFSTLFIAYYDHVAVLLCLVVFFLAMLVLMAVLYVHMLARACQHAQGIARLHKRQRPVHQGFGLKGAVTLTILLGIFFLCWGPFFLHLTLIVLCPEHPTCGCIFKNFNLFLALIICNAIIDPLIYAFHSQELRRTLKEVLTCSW

Melanocortin receptor 4 [2] = target: T2, Melanocortin receptor 4 (Homo sapiens, UniProt P32245); test: Binding affinity towards human melanocortin receptor hMC4R by using radioligand NDP-MSH
[3] = target: T1, Melanocyte-stimulating hormone receptor; test: (§1) Agonist activity against human melanocortin receptor hMC1R at 50% maximum cAMP accumulation; format: functional
Target sequence in this assay (Q01726 whole entry): as above

[4] = target: T1, Melanocyte-stimulating hormone receptor; test: Agonist activity against human melanocortin receptor hMC1R; format: functional
Target sequence in this assay (Q01726 whole entry): as above

Melanocortin receptor 4 [5] = target: T2, Melanocortin receptor 4; test: Agonist activity against human melanocortin receptor hMC4R; format: functional
[6] = target: T1, Melanocyte-stimulating hormone receptor; test: as §1; format: functional; remark: listed apart in the source
Target sequence in this assay (Q01726 whole entry, looked up): as the sequence (Q01726 whole entry) above

Melanocortin receptor 3 [7] = target: T3, Melanocortin receptor 3 (Homo sapiens, UniProt P41968); test: Agonist activity against human melanocortin receptor hMC3R measured as percent cAMP accumulation at the concentration of 50 uM; format: functional
[8] = target: T1, Melanocyte-stimulating hormone receptor; test: Percent inhibition of human melanocortin receptor hMC1R at the concentration of 50 uM
Target sequence in this assay (Q01726 whole entry, looked up): as the sequence (Q01726 whole entry) above

Melanocortin receptor 5 [9] = target: T4, Melanocortin receptor 5 (Homo sapiens, UniProt P33032); test: Agonist activity against human melanocortin receptor hMC5R measured as percent cAMP accumulation at the concentration of 50 uM; format: functional
Melanocortin receptor 4 [10] = target: T2, Melanocortin receptor 4; test: Percent inhibition of human melanocortin receptor hMC4R at the concentration of 50 uM
Melanocortin receptor 4 [11] = target: T2, Melanocortin receptor 4; test: Binding affinity towards human melanocortin receptor hMC4R by using radioligand NDP-MSH; not determined
Melanocortin receptor 5 [12] = target: T4, Melanocortin receptor 5; test: Binding affinity towards human melanocortin receptor hMC5R by using radioligand NDP-MSH
Melanocortin receptor 3 [13] = target: T3, Melanocortin receptor 3; test: Binding affinity towards human melanocortin receptor hMC3R by using radioligand NDP-MSH

T4 sequence (P33032 whole entry): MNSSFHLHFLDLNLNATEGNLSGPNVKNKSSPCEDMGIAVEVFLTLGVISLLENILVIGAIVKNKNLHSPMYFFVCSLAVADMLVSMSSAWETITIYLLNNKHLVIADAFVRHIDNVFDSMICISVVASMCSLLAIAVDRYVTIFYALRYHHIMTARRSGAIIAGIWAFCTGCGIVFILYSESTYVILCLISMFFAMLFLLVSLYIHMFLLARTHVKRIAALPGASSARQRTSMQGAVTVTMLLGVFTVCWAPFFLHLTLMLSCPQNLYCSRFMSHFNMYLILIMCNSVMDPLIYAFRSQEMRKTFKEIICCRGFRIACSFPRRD
T3 sequence (P41968 whole entry): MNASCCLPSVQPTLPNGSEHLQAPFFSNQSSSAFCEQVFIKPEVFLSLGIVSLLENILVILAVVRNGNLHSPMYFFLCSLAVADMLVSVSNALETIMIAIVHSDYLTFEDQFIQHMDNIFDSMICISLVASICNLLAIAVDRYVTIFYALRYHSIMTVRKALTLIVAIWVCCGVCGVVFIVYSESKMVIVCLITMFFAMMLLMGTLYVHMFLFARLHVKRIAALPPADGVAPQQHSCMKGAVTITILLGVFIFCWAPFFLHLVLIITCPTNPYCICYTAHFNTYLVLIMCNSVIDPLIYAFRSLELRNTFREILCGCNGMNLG
T2 sequence (P32245 whole entry): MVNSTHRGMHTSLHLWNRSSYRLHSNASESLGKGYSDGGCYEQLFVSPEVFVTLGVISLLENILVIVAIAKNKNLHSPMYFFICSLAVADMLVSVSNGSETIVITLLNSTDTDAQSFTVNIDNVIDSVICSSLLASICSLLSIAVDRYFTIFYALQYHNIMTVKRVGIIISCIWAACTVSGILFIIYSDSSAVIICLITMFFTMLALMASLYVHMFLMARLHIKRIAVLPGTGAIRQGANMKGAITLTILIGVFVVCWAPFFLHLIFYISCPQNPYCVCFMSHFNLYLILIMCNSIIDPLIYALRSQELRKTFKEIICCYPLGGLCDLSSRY

SMILES	pEC50 [4]	pEC50 (Melanocortin receptor 4 [5])	also measured
CCCCC(=O)NC1(C(=O)N[C@H](Cc2ccccc2)C(=O)N[C@@H](CCCNC(=N)N)C(=O)N[C@@H](Cc2c[nH]c3ccccc23)C(=O)NCC(N)=O)CCc2c(cccc2N(C)C)C1 (single isomer, unassigned; isomer 2)	5.73	7.80	pIC50 [1]: 4.66; pIC50 (Melanocortin receptor 4 [2]): 6.82; pEC50 [3]: 5.73
CCCC(=O)N[C@@H](Cc1c[nH]cn1)C(=O)N[C@H](Cc1ccccc1)C(=O)N[C@@H](CCCN=C(N)N)C(=O)N[C@@H](Cc1c[nH]c2ccccc12)C(=O)NCC(N)=O			Accumulation (Melanocortin receptor 3 [7]): 0%; Accumulation (Melanocortin receptor 5 [9]): 0%
CCCCC(=O)NC1(C(=O)N[C@H](Cc2ccccc2)C(=O)N[C@@H](CCCN=C(N)N)C(=O)N[C@@H](Cc2c[nH]c3ccccc23)C(=O)NCC(N)=O)CCc2c(cccc2N(C)C)C1 (single isomer, unassigned; isomer 2)			Accumulation (Melanocortin receptor 3 [7]): 0%; Accumulation (Melanocortin receptor 5 [9]): 24%
CCCCC(=O)NC1(C(=O)NC(Cc2ccccc2)C(=O)N[C@@H](CCCN=C(N)N)C(=O)N[C@@H](Cc2c[nH]c3ccccc23)C(=O)NCC(N)=O)CCc2cc(Br)ccc2C1 (single isomer, unassigned; form 1) [listing 1 of 2 here]			inhibition (Melanocortin receptor 4 [10]): 60%
CCCCC(=O)NC1(C(=O)NC(Cc2ccccc2)C(=O)N[C@@H](CCCNC(=N)N)C(=O)N[C@@H](Cc2c[nH]c3ccccc23)C(=O)NCC(N)=O)CCc2c(Cl)cccc2C1 (single isomer, unassigned)	5.85	6.22	
CCCC(=O)N[C@@]1(C(=O)N[C@H](Cc2ccccc2)C(=O)N[C@@H](CCCN=C(N)N)C(=O)N[C@@H](Cc2c[nH]c3ccccc23)C(=O)NCC(N)=O)CCc2ccccc2C1 (stereo in doubt; form 1)	5.36	6.54	
CCCC(=O)N[C@@H](C)C(=O)NC(Cc1ccccc1)C(=O)N[C@@H](CCCN=C(N)N)C(=O)N[C@@H](Cc1c[nH]c2ccccc12)C(=O)NCC(N)=O (single isomer, unassigned)	6.64	6.74	
CCCCC(=O)NC1(C(=O)N[C@H](Cc2ccccc2)C(=O)N[C@@H](CCCNC(=N)N)C(=O)N[C@@H](Cc2c[nH]c3ccccc23)C(=O)NCC(N)=O)CCc2c(Cl)cccc2C1 (single isomer, unassigned; isomer 2)	6.05	6.89	
CCCCC(=O)NC1(C(=O)NC(Cc2ccccc2)C(=O)N[C@@H](CCCNC(=N)N)C(=O)N[C@@H](Cc2c[nH]c3ccccc23)C(=O)NCC(N)=O)CCc2c(cccc2OC(C)C)C1 (single isomer, unassigned)	6.17	6.89	
CCCCC(=O)NC1(C(=O)NC(Cc2ccccc2)C(=O)N[C@@H](CCCNC(=N)N)C(=O)N[C@@H](Cc2c[nH]c3ccccc23)C(=O)NCC(N)=O)CCc2c(cccc2C(C)C)C1 (single isomer, unassigned)	6.53	7.89	
CCCCC(=O)NC1(C(=O)NC(Cc2ccccc2)C(=O)N[C@@H](CCCNC(=N)N)C(=O)N[C@@H](Cc2c[nH]c3ccccc23)C(=O)NCC(N)=O)CCc2c(CC)cccc2C1 (single isomer, unassigned)	6.71	7.62	
CCCCC(=O)NC1(C(=O)NC(Cc2ccccc2)C(=O)N[C@@H](CCCNC(=N)N)C(=O)N[C@@H](Cc2c[nH]c3ccccc23)C(=O)NCC(N)=O)CCc2c(cccc2OCC)C1 (single isomer, unassigned)	6.00	6.92	
CCCCC(=O)NC1(C(=O)N[C@H](Cc2ccccc2)C(=O)N[C@@H](CCCN=C(N)N)C(=O)N[C@@H](Cc2c[nH]c3ccccc23)C(=O)NCC(N)=O)CCc2c(Br)cccc2C1 (single isomer, unassigned; isomer 2)			Accumulation (Melanocortin receptor 3 [7]): 0%; inhibition [8]: 50%; Accumulation (Melanocortin receptor 5 [9]): 32%
CCCC(=O)N[C@@H](Cc1cnc[nH]1)C(=O)N[C@H](Cc1ccccc1)C(=O)N[C@@H](CCCNC(=N)N)C(=O)N[C@@H](Cc1c[nH]c2ccccc12)C(=O)NCC(N)=O	8.00	7.70	pIC50 [1]: 6.24; pIC50 (Melanocortin receptor 5 [12]): 4.88; pIC50 (Melanocortin receptor 4 [2]): 6.82; pEC50 [3]: 8.00; pIC50 (Melanocortin receptor 3 [13]): 5.40
CCCCC(=O)NC1(C(=O)NC(Cc2ccccc2)C(=O)N[C@@H](CCCNC(=N)N)C(=O)N[C@@H](Cc2c[nH]c3ccccc23)C(=O)NCC(N)=O)CCc2c(cccc2OC)C1 (single isomer, unassigned)	5.83	7.05	
CCCCC(=O)NC1(C(=O)NC(Cc2ccccc2)C(=O)N[C@@H](CCCN=C(N)N)C(=O)N[C@@H](Cc2c[nH]c3ccccc23)C(=O)NCC(N)=O)CCc2ccc(Br)cc2C1 (single isomer, unassigned)			inhibition (Melanocortin receptor 4 [10]): 40%; inhibition [8]: 0%
CCCCC(=O)NC1(C(=O)N[C@H](Cc2ccccc2)C(=O)N[C@@H](CCCN=C(N)N)C(=O)N[C@@H](Cc2c[nH]c3ccccc23)C(=O)NCC(N)=O)CCc2c(cccc2N(C)C)C1 (single isomer, unassigned; isomer 1)			Accumulation (Melanocortin receptor 3 [7]): 0%; Accumulation (Melanocortin receptor 5 [9]): 0%
CCCCC(=O)NC1(C(=O)NC(Cc2ccccc2)C(=O)N[C@@H](CCCNC(=N)N)C(=O)N[C@@H](Cc2c[nH]c3ccccc23)C(=O)NCC(N)=O)CCc2c(C)cccc2C1 (single isomer, unassigned)	5.91	7.46	
CCCCC(=O)NC1(C(=O)N[C@H](Cc2ccccc2)C(=O)N[C@@H](CCCNC(=N)N)C(=O)N[C@@H](Cc2c[nH]c3ccccc23)C(=O)NCC(N)=O)CCc2c(cccc2N(C)C)C1 (single isomer, unassigned; isomer 1)	6.03	8.70	pIC50 [1]: 4.59; pIC50 (Melanocortin receptor 4 [2]): 7.60; pEC50 [3]: 6.03
CCCCC(=O)NC1(C(=O)NC(Cc2ccccc2)C(=O)N[C@@H](CCCN=C(N)N)C(=O)N[C@@H](Cc2c[nH]c3ccccc23)C(=O)NCC(N)=O)CCc2cc(Br)ccc2C1 (single isomer, unassigned; form 2) [listing 2 of 2 here]			inhibition (Melanocortin receptor 4 [10]): 50%

Continued, in another order:

pEC50 [4]	pEC50 (Melanocortin receptor 4 [5])	SMILES	also measured
	7.48	CCCCC(=O)NC1(C(=O)NC(Cc2ccccc2)C(=O)N[C@@H](CCCN=C(N)N)C(=O)N[C@@H](Cc2c[nH]c3ccccc23)C(=O)NCC(N)=O)CCc2c(Br)cccc2C1 (single isomer, unassigned)	pIC50 [1]: 5.31; Accumulation [6]: 75%; pIC50 (Melanocortin receptor 4 [2]): 6.70; Accumulation (Melanocortin receptor 3 [7]): 0%; inhibition [8]: 75%; Accumulation (Melanocortin receptor 5 [9]): 0%
6.08	7.35	CCCCC(=O)N[C@]1(C(=O)N[C@H](Cc2ccccc2)C(=O)N[C@@H](CCCN=C(N)N)C(=O)N[C@@H](Cc2c[nH]c3ccccc23)C(=O)NCC(N)=O)CCc2ccccc2C1 (stereo in doubt; form 1)	
5.25	5.53	CCCC(=O)N[C@@]1(C(=O)N[C@H](Cc2ccccc2)C(=O)N[C@@H](CCCN=C(N)N)C(=O)N[C@@H](Cc2c[nH]c3ccccc23)C(=O)NCC(N)=O)CCc2ccccc2C1 (stereo in doubt; form 2)	
5.47		CCCCC(=O)NC1(C(=O)NC(Cc2ccccc2)C(=O)N[C@@H](CCCN=C(N)N)C(=O)N[C@@H](Cc2c[nH]c3ccccc23)C(=O)NCC(N)=O)CCc2cc(Br)ccc2C1 (single isomer, unassigned; form 1) [listing 2 of 2 here]	
	7.46	CCCCC(=O)NC1(C(=O)N[C@H](Cc2ccccc2)C(=O)N[C@@H](CCCNC(=N)N)C(=O)N[C@@H](Cc2c[nH]c3ccccc23)C(=O)NCC(N)=O)CCc2c(Br)cccc2C1 (single isomer, unassigned; isomer 2)	pIC50 [1]: 5.29; pIC50 (Melanocortin receptor 4 [11]): 6.98
5.71	6.00	CCCCC(=O)N[C@]1(C(=O)N[C@H](Cc2ccccc2)C(=O)N[C@@H](CCCN=C(N)N)C(=O)N[C@@H](Cc2c[nH]c3ccccc23)C(=O)NCC(N)=O)CCc2ccccc2C1 (stereo in doubt; form 2)	
5.77		CCCCC(=O)NC1(C(=O)NC(Cc2ccccc2)C(=O)N[C@@H](CCCN=C(N)N)C(=O)N[C@@H](Cc2c[nH]c3ccccc23)C(=O)NCC(N)=O)CCc2cccc(Br)c2C1 (single isomer, unassigned)	inhibition (Melanocortin receptor 4 [10]): 0%
5.33		CCCCC(=O)NC1(C(=O)NC(Cc2ccccc2)C(=O)N[C@@H](CCCN=C(N)N)C(=O)N[C@@H](Cc2c[nH]c3ccccc23)C(=O)NCC(N)=O)CCc2cc(Br)ccc2C1 (single isomer, unassigned; form 2) [listing 1 of 2 here]	
5.54		CCCCC(=O)NC1(C(=O)N[C@H](Cc2ccccc2)C(=O)N[C@@H](CCCN=C(N)N)C(=O)N[C@@H](Cc2c[nH]c3ccccc23)C(=O)NCC(N)=O)CCc2cccc(Br)c2C1 (single isomer, unassigned; isomer 2)	inhibition (Melanocortin receptor 4 [10]): 0%
